{"source": "patent US10801050B2", "about": "“Microorganism modified for the assimilation of levulinic acid” (priority 2015, dated 2020)", "experiment": "In vitro validation of enzymatic activities: LC-MS/MS detection of levulinyl-CoA after incubation of purified proteins with substrates", "format": "biochemical, Ralstonia eutropha", "conditions": "purified proteins incubated with their respective substrates; reverse phase UPLC, negative ion MS/MS", "description": "To validate the activity of the candidates identified in Example 2 above with regard to reactions A1, A2 and B, their corresponding genes were cloned into the expression plasmid pPAL7 (Biorad®). In the case of QOKBZ9_CUPNH and Q0KC00_CUPNH, the corresponding genes were cloned in operon into the pPAL7. The resulting plasmids were transformed into E. coli BL21(DE3) strain.\nThe resulting strains were cultivated as described in patent application WO 2010/076324, incorporated herein by reference. Cells were collected by centrifugation and resuspended in potassium phosphate buffer 100 mM pH 7.6. Proteins were extracted by sonication and crude extracts were clarified by centrifugation. Recombinant protein purification was carried out using Biorad® PROfinity EXact cartridges according to the manufacturer's instructions. […]\nLevulinyl-CoA was detected by reverse phase UPLC coupled to negative ion MS/MS, by searching for the transition from mass 864 (mass of levulinyl-CoA minus 1) to 408 (ion corresponding to the adenine part according to the protocol described by Zirrolli et al. 1994) as shown on FIG. 3."}
{"substance": "Q0KBZ9_CUPNH/Q0KC00_CUPNH: the 2 subunits of succinyl-CoA:3-ketoacid-coenzyme A transferase (EC 2.8.3.5), candidate for reaction A2", "values": [{"measurement": "detection of levulinyl-CoA in the reaction mixture (transition 864 to 408)", "result": "presence of levulinyl-CoA"}]}
